ChEMBL document CHEMBL3046635, “Synthesis and Herbicidal Activity of New Pyrazole-4-carboxamide Derivatives” (J Pestic Sci, 2004)
Calls of active or inactive are those of the source.

How the values were obtained:
Pontederia vaginalis [1] = experiment: Pre-emergence herbicidal activity against Monochoria vaginalis at 500 g a.i/ha measured after 14 days; format: functional, organism-based
Cyperus difformis [2] = experiment: Pre-emergence herbicidal activity against Cyperus difformis assessed as bleaching of stem/leaf parts; format: functional, organism-based
Echinochloa oryzicola [3] = experiment: Post-emergence herbicidal activity against Echinochloa oryzicola assessed as bleaching of stem/leaf parts; format: functional, organism-based; note: test concentration or dose not given here
Eleocharis acicularis [4] = experiment: Post-emergence herbicidal activity against Eleocharis acicularis assessed as bleaching of stem/leaf parts; format: functional, organism-based; note: test concentration or dose not given here
Ammannia multiflora [5] = experiment: Pre-emergence herbicidal activity against Ammannia multiflora at 100 g a.i/ha measured after 14 days; format: functional, organism-based
Elatine triandra [6] = experiment: Pre-emergence herbicidal activity against Elatine triandra at 100 g a.i/ha measured after 14 days; format: functional, organism-based
Elatine triandra [7] = experiment: Pre-emergence herbicidal activity against Elatine triandra assessed as bleaching of stem/leaf parts; format: functional, organism-based
Lindernia procumbens [8] = experiment: Post-emergence herbicidal activity against Lindernia procumbens assessed as bleaching of stem/leaf parts; format: functional, organism-based; note: test concentration or dose not given here
Cyperus difformis [9] = experiment: Post-emergence herbicidal activity against Cyperus difformis assessed as bleaching of stem/leaf parts; format: functional, organism-based; note: test concentration or dose not given here
Cyperus difformis [10] = experiment: Pre-emergence herbicidal activity against Cyperus difformis at 500 g a.i/ha measured after 14 days; format: functional, organism-based
Echinochloa oryzicola [11] = experiment: Pre-emergence herbicidal activity against Echinochloa oryzicola assessed as bleaching of stem/leaf parts; format: functional, organism-based
Elatine triandra [12] = experiment: Pre-emergence herbicidal activity against Elatine triandra at 500 g a.i/ha measured after 14 days; format: functional, organism-based
Ammannia multiflora [13] = experiment: Pre-emergence herbicidal activity against Ammannia multiflora assessed as bleaching of stem/leaf parts; format: functional, organism-based
Lindernia procumbens [14] = experiment: Pre-emergence herbicidal activity against Lindernia procumbens assessed as bleaching of stem/leaf parts; format: functional, organism-based
[15] = tested on: Schoenoplectiella juncoides; experiment: Pre-emergence herbicidal activity against Schoenoplectiella juncoides at 500 g a.i/ha measured after 14 days; format: functional, organism-based
[16] = tested on: Schoenoplectiella juncoides; experiment: Pre-emergence herbicidal activity against Schoenoplectiella juncoides at 100 g a.i/ha measured after 14 days; format: functional, organism-based
Ammannia multiflora [17] = experiment: Post-emergence herbicidal activity against Ammannia multiflora assessed as bleaching of stem/leaf parts; format: functional, organism-based; note: test concentration or dose not given here
Pontederia vaginalis [18] = experiment: Pre-emergence herbicidal activity against Monochoria vaginalis assessed as bleaching of stem/leaf parts; format: functional, organism-based
Elatine triandra [19] = experiment: Post-emergence herbicidal activity against Elatine triandra assessed as bleaching of stem/leaf parts; format: functional, organism-based; note: test concentration or dose not given here
Pontederia vaginalis [20] = experiment: Pre-emergence herbicidal activity against Monochoria vaginalis at 100 g a.i/ha measured after 14 days; format: functional, organism-based
Lindernia procumbens [21] = experiment: Pre-emergence herbicidal activity against Lindernia procumbens at 500 g a.i/ha measured after 14 days; format: functional, organism-based
Cyperus difformis [22] = experiment: Pre-emergence herbicidal activity against Cyperus difformis at 100 g a.i/ha measured after 14 days; format: functional, organism-based
Oryza sativa [23] = experiment: Phytotoxicity against Oryza sativa cv. Koshihikari (rice) at 100 g a.i/ha measured after 14 days; format: organism-based; settings: in vivo, 336 h
Pontederia vaginalis [24] = experiment: Post-emergence herbicidal activity against Monochoria vaginalis assessed as bleaching of stem/leaf parts; format: functional, organism-based; note: test concentration or dose not given here
Ammannia multiflora [25] = experiment: Pre-emergence herbicidal activity against Ammannia multiflora at 500 g a.i/ha measured after 14 days; format: functional, organism-based
[26] = tested on: Schoenoplectiella juncoides; experiment: Pre-emergence herbicidal activity against Schoenoplectiella juncoides assessed as bleaching of stem/leaf parts; format: functional, organism-based
[27] = tested on: Schoenoplectiella juncoides; experiment: Post-emergence herbicidal activity against Schoenoplectiella juncoides assessed as bleaching of stem/leaf parts; format: functional, organism-based; note: test concentration or dose not given here
Rotala indica [28] = experiment: Pre-emergence herbicidal activity against Rotala indica at 500 g a.i/ha measured after 14 days; format: functional, organism-based
Rotala indica [29] = experiment: Pre-emergence herbicidal activity against Rotala indica at 100 g a.i/ha measured after 14 days; format: functional, organism-based
Rotala indica [30] = experiment: Post-emergence herbicidal activity against Rotala indica assessed as bleaching of stem/leaf parts; format: functional, organism-based; note: test concentration or dose not given here
Oryza sativa [31] = experiment: Phytotoxicity against Oryza sativa cv. Koshihikari (rice) at 500 g a.i/ha measured after 14 days; format: organism-based; settings: in vivo, 336 h
Echinochloa oryzicola [32] = experiment: Pre-emergence herbicidal activity against Echinochloa oryzicola at 500 g a.i/ha measured after 14 days; format: functional, organism-based
Eleocharis acicularis [33] = experiment: Pre-emergence herbicidal activity against Eleocharis acicularis assessed as bleaching of stem/leaf parts; format: functional, organism-based
Echinochloa oryzicola [34] = experiment: Pre-emergence herbicidal activity against Echinochloa oryzicola at 100 g a.i/ha measured after 14 days; format: functional, organism-based
Lindernia procumbens [35] = experiment: Pre-emergence herbicidal activity against Lindernia procumbens at 100 g a.i/ha measured after 14 days; format: functional, organism-based
Rotala indica [36] = experiment: Pre-emergence herbicidal activity against Rotala indica assessed as bleaching of stem/leaf parts; format: functional, organism-based
Eleocharis acicularis [37] = experiment: Pre-emergence herbicidal activity against Eleocharis acicularis at 500 g a.i/ha measured after 14 days; format: functional, organism-based

| SMILES | Activity (Pontederia vaginalis [1]) | Activity (Cyperus difformis [2]) | Activity (Echinochloa oryzicola [3]) | Activity (Eleocharis acicularis [4]) | Activity (Elatine triandra [7]) | Activity (Lindernia procumbens [8]) | Activity (Cyperus difformis [9]) | Activity (Cyperus difformis [10]) | Activity (Echinochloa oryzicola [11]) | Activity (Elatine triandra [12]) | Activity (Ammannia multiflora [13]) | Activity (Lindernia procumbens [14]) | Activity [15] | Activity (Ammannia multiflora [17]) | Activity (Pontederia vaginalis [18]) | Activity (Elatine triandra [19]) | Activity (Lindernia procumbens [21]) | Activity (Pontederia vaginalis [24]) | Activity (Ammannia multiflora [25]) | Activity [26] | other results |
| --- | --- | --- | --- | --- | --- | --- | --- | --- | --- | --- | --- | --- | --- | --- | --- | --- | --- | --- | --- | --- | --- |
| CCONC(=O)c1cn(C(F)F)nc1OCc1cccc(C(F)(F)F)c1 | Active | Active | Active | Active | Active | Active | Active | Active | Active | Active | Active | Active | Active | Active | Active | Active | Active | Active | Active | Active | Activity (Ammannia multiflora [5]): Active; Activity (Elatine triandra [6]): Active; Activity [16]: Active; Activity (Pontederia vaginalis [20]): Active; Activity (Cyperus difformis [22]): Active; Activity (Oryza sativa [23]): Non-toxic; Activity [27]: Active; Activity (Rotala indica [28]): Active; Activity (Rotala indica [29]): Active; Activity (Rotala indica [30]): Active; Activity (Oryza sativa [31]): Non-toxic; Activity (Echinochloa oryzicola [32]): Active; Activity (Eleocharis acicularis [33]): Active; Activity (Echinochloa oryzicola [34]): inactive; Activity (Lindernia procumbens [35]): Active; Activity (Rotala indica [36]): Active |
| CCCn1cc(C(=O)NOCC)c(OCc2cccc(C(F)(F)F)c2)n1 | inactive | Active | Active | Active | Active | Active | Active | inactive | Active | inactive | Active | Active | inactive | Active | Active | Active | inactive | Active | inactive | Active | Activity (Eleocharis acicularis [37]): inactive; Activity [27]: Active; Activity (Rotala indica [28]): inactive; Activity (Rotala indica [30]): Active; Activity (Oryza sativa [31]): Non-toxic; Activity (Echinochloa oryzicola [32]): inactive; Activity (Eleocharis acicularis [33]): Active; Activity (Rotala indica [36]): Active |
| Cn1cc(C(=O)Nc2ccc(C#N)cc2)c(OCc2cccc(C(F)(F)F)c2)n1 | inactive | Active | Active | Active | Active | Active | Active | inactive | Active | Active | Active | Active | inactive | Active | Active | Active | Active | Active | Active | Active | Activity (Eleocharis acicularis [37]): inactive; Activity [27]: Active; Activity (Rotala indica [28]): Active; Activity (Rotala indica [30]): Active; Activity (Oryza sativa [31]): Non-toxic; Activity (Echinochloa oryzicola [32]): inactive; Activity (Eleocharis acicularis [33]): Active; Activity (Rotala indica [36]): Active |
| Cn1cc(C(=O)Nc2ccc(C(C)(C)C)cc2)c(OCc2cccc(C(F)(F)F)c2)n1 | inactive | Active | Active | Active | Active | Active | Active | inactive | Active | inactive | Active | Active | inactive | Active | Active | Active | inactive | Active | inactive | Active | Activity (Eleocharis acicularis [37]): inactive; Activity [27]: Active; Activity (Rotala indica [28]): inactive; Activity (Rotala indica [30]): Active; Activity (Oryza sativa [31]): Non-toxic; Activity (Echinochloa oryzicola [32]): inactive; Activity (Eleocharis acicularis [33]): Active; Activity (Rotala indica [36]): Active |
| Cn1nc(OCc2cccc(C(F)(F)F)c2)c(C(=O)NOc2ccc(F)cc2F)c1Cl | inactive | Active | Active | Active | Active | Active | Active | inactive | Active | inactive | Active | Active | inactive | Active | Active | Active | inactive | Active | inactive | Active | Activity (Eleocharis acicularis [37]): inactive; Activity [27]: Active; Activity (Rotala indica [28]): inactive; Activity (Rotala indica [30]): Active; Activity (Oryza sativa [31]): Non-toxic; Activity (Echinochloa oryzicola [32]): inactive; Activity (Eleocharis acicularis [33]): Active; Activity (Rotala indica [36]): Active |
| C=CCNC(=O)c1cn(C)nc1OCc1cccc(C(F)(F)F)c1 | inactive | Active | Active | Active | Active | Active | Active | inactive | Active | inactive | Active | Active | inactive | Active | Active | Active | inactive | Active | inactive | Active | Activity (Eleocharis acicularis [37]): inactive; Activity [27]: Active; Activity (Rotala indica [28]): inactive; Activity (Rotala indica [30]): Active; Activity (Oryza sativa [31]): Non-toxic; Activity (Echinochloa oryzicola [32]): inactive; Activity (Eleocharis acicularis [33]): Active; Activity (Rotala indica [36]): Active |
| Cn1cc(C(=O)Nc2ccc(C(F)(F)F)cc2)c(OCc2cccc(C(F)(F)F)c2)n1 | Active | Active | Active | Active | Active | Active | Active | inactive | Active | Active | Active | Active | inactive | Active | Active | Active | Active | Active | Active | Active | Activity (Eleocharis acicularis [37]): Active; Activity [27]: Active; Activity (Rotala indica [28]): Active; Activity (Rotala indica [30]): Active; Activity (Oryza sativa [31]): Non-toxic; Activity (Echinochloa oryzicola [32]): inactive; Activity (Eleocharis acicularis [33]): Active; Activity (Rotala indica [36]): Active |
| Cn1cc(C(=O)NOc2ccc(C(C)(C)C)cc2)c(OCc2cccc(C(F)(F)F)c2)n1 | inactive | Active | Active | Active | Active | Active | Active | inactive | Active | inactive | Active | Active | inactive | Active | Active | Active | inactive | Active | inactive | Active | Activity (Eleocharis acicularis [37]): inactive; Activity [27]: Active; Activity (Rotala indica [28]): inactive; Activity (Rotala indica [30]): Active; Activity (Oryza sativa [31]): Non-toxic; Activity (Echinochloa oryzicola [32]): inactive; Activity (Eleocharis acicularis [33]): Active; Activity (Rotala indica [36]): Active |
